Data from doi:10.1101/2024.08.19.608619, “Discovery of potent SARS-CoV-2 nsp3 macrodomain inhibitors uncovers lack of translation to cellular antiviral response” (bioRxiv, 2024).
Like-named read-outs stand apart in the source and are kept apart here.

Assays:
SARS-CoV-2 nsp3-mac1 [1] = target: T1, SARS-CoV-2 nsp3-mac1 (Severe acute respiratory syndrome coronavirus 2, UniProt P0DTD1); assay: biochemical; assay type: biochemical; conditions: SARS-CoV-2 nsp3 macrodomain TR-FRET single point
SARS-CoV-2 nsp3-mac1 [2] = target: T1, SARS-CoV-2 nsp3-mac1; assay: biochemical; design: SARS-CoV-2 nsp3 macrodomain TR-FRET single point, per cent inhibition, n=2
[3] = read-out: perc_inhibition_mean, batch_name=ASAP-0000253-001
[4] = read-out: perc_inhibition_mean, batch_name=ASAP-0000354-001
[5] = read-out: perc_inhibition_mean, batch_name=ASAP-0000293-001
[6] = read-out: perc_inhibition_mean, batch_name=ASAP-0000358-001
[7] = read-out: perc_inhibition_mean, batch_name=ASAP-0000322-001
[8] = read-out: perc_inhibition_mean, batch_name=ASAP-0000452-001
[9] = read-out: perc_inhibition_mean, batch_name=ASAP-0000345-001
[10] = read-out: perc_inhibition_mean, batch_name=ASAP-0000468-001
[11] = read-out: perc_inhibition_mean, batch_name=ASAP-0000321-001
[12] = read-out: perc_inhibition_mean, batch_name=ASAP-0000466-001
[13] = read-out: perc_inhibition_mean, batch_name=ASAP-0000302-001
[14] = read-out: perc_inhibition_mean, batch_name=ASAP-0000298-001
[15] = read-out: perc_inhibition_mean, batch_name=ASAP-0000350-001

Cc1cc(C(=O)Nc2[nH]nc3nc(O)ccc23)c2c(C)nn(C)c2n1 [ASAP-0000253]
perc_inhibition_mean (SARS-CoV-2 nsp3-mac1 [1]; concentration 50.0 uM): -6.166% | perc_inhibition_mean (SARS-CoV-2 nsp3-mac1 [1]; concentration 100.0 uM): -3.323% | inhibition at 50 µM (SARS-CoV-2 nsp3-mac1 [2]; [3]): -6.17% | inhibition at 100 µM (SARS-CoV-2 nsp3-mac1 [2]; [3]): -3.32%

Cc1ccc(NC(=O)c2cnn3ccc(C4CCN(C(=O)c5ccccc5)CC4)cc23)cc1C(=O)O [ASAP-0000354]
perc_inhibition_mean (SARS-CoV-2 nsp3-mac1 [1]; concentration 49.75 uM): -1.047% | perc_inhibition_mean (SARS-CoV-2 nsp3-mac1 [1]; concentration 99.5 uM): -0.624% | inhibition at 49.75 µM (SARS-CoV-2 nsp3-mac1 [2]; [4]): -1.05% | inhibition at 99.5 µM (SARS-CoV-2 nsp3-mac1 [2]; [4]): -0.624%

CN1CCO[C@H](CNC(=O)c2ccc(NC(=O)Nc3ccccc3)cc2)C1 [ASAP-0000293]
perc_inhibition_mean (SARS-CoV-2 nsp3-mac1 [1]; concentration 49.75 uM, n=2): -0.616% | perc_inhibition_mean (SARS-CoV-2 nsp3-mac1 [1]; concentration 99.5 uM, n=2): 3.272% | inhibition at 49.75 µM (SARS-CoV-2 nsp3-mac1 [2]; [5]): -0.616% | inhibition at 99.5 µM (SARS-CoV-2 nsp3-mac1 [2]; [5]): 3.27%

Cc1ccc(C(=O)N2CCC(c3ccn4ncc(C(=O)N5CCCCC5)c4c3)CC2)c(=O)[nH]1 [ASAP-0000358]
perc_inhibition_mean (SARS-CoV-2 nsp3-mac1 [1]; concentration 49.75 uM): 3.307% | perc_inhibition_mean (SARS-CoV-2 nsp3-mac1 [1]; concentration 99.5 uM): 3.662% | inhibition at 49.75 µM (SARS-CoV-2 nsp3-mac1 [2]; [6]): 3.31% | inhibition at 99.5 µM (SARS-CoV-2 nsp3-mac1 [2]; [6]): 3.66%

CC(C)n1nccc1NC(=O)c1ccc(NC(=O)Nc2ccccc2)cc1 [ASAP-0000322]
perc_inhibition_mean (SARS-CoV-2 nsp3-mac1 [1]; concentration 49.75 uM, n=2): -1.998% | perc_inhibition_mean (SARS-CoV-2 nsp3-mac1 [1]; concentration 99.5 uM, n=2): -0.924% | inhibition at 49.75 µM (SARS-CoV-2 nsp3-mac1 [2]; [7]): -2% | inhibition at 99.5 µM (SARS-CoV-2 nsp3-mac1 [2]; [7]): -0.924%

Cc1ccnc(C2CCN(c3ncnc4[nH]ccc34)CC2)n1 [ASAP-0000050]
perc_inhibition_mean (SARS-CoV-2 nsp3-mac1 [1]; concentration 50.0 uM): 3.465% | inhibition at 50 µM (SARS-CoV-2 nsp3-mac1 [2]; read-out: perc_inhibition_mean, batch_name=ASAP-0000050-001): 3.46%

CC(C)[C@@H](Nc1ncnc2[nH]ccc12)C(F)F [ASAP-0000452]
perc_inhibition_mean (SARS-CoV-2 nsp3-mac1 [1]; concentration 49.75 uM): 81.614% | perc_inhibition_mean (SARS-CoV-2 nsp3-mac1 [1]; concentration 99.5 uM): 91.659% | inhibition at 49.75 µM (SARS-CoV-2 nsp3-mac1 [2]; [8]): 81.6% | inhibition at 99.5 µM (SARS-CoV-2 nsp3-mac1 [2]; [8]): 91.7%

O=C(c1cnc[nH]1)N1CCC(c2ccn3ncc(C(=O)N4CCCCC4)c3c2)CC1 [ASAP-0000345]
perc_inhibition_mean (SARS-CoV-2 nsp3-mac1 [1]; concentration 49.75 uM, n=2): 20.282% | perc_inhibition_mean (SARS-CoV-2 nsp3-mac1 [1]; concentration 99.5 uM, n=2): 35.337% | inhibition at 49.75 µM (SARS-CoV-2 nsp3-mac1 [2]; [9]): 20.3% | inhibition at 99.5 µM (SARS-CoV-2 nsp3-mac1 [2]; [9]): 35.3%

Cc1nn(-c2ccccc2)c(C)c1[C@H]1COCCN1c1ncnc2[nH]ccc12 [ASAP-0000468]
perc_inhibition_mean (SARS-CoV-2 nsp3-mac1 [1]; concentration 49.75 uM): -0.042% | perc_inhibition_mean (SARS-CoV-2 nsp3-mac1 [1]; concentration 99.5 uM): -4.216% | inhibition at 49.75 µM (SARS-CoV-2 nsp3-mac1 [2]; [10]): -0.042% | inhibition at 99.5 µM (SARS-CoV-2 nsp3-mac1 [2]; [10]): -4.22%

Cn1c(C(=O)N(CCC(=O)N2CCNCC2)Cc2cccc(Cl)c2)cnc1O [ASAP-0000321]
perc_inhibition_mean (SARS-CoV-2 nsp3-mac1 [1]; concentration 49.75 uM, n=2): -4.765% | perc_inhibition_mean (SARS-CoV-2 nsp3-mac1 [1]; concentration 99.5 uM, n=2): -2.757% | inhibition at 49.75 µM (SARS-CoV-2 nsp3-mac1 [2]; [11]): -4.76% | inhibition at 99.5 µM (SARS-CoV-2 nsp3-mac1 [2]; [11]): -2.76%

Cc1cncc(NCc2csc(-c3ccccn3)n2)c1 [ASAP-0000122]
perc_inhibition_mean (SARS-CoV-2 nsp3-mac1 [1]; concentration 50.0 uM): -5.024% | inhibition at 50 µM (SARS-CoV-2 nsp3-mac1 [2]; read-out: perc_inhibition_mean, batch_name=ASAP-0000122-001): -5.02%

Cn1c(C(=O)NCCn2cccc2)cc2c(=O)n3ccccc3nc21 [ASAP-0000188]
perc_inhibition_mean (SARS-CoV-2 nsp3-mac1 [1]; concentration 50.0 uM): 2.262% | inhibition at 50 µM (SARS-CoV-2 nsp3-mac1 [2]; read-out: perc_inhibition_mean, batch_name=ASAP-0000188-001): 2.26%

CC(C)[C@@H](CCN(C)C(=O)c1nn2cccnc2c1Cl)Nc1ncnc2[nH]ccc12 [ASAP-0000466]
perc_inhibition_mean (SARS-CoV-2 nsp3-mac1 [1]; concentration 49.75 uM): 0.844% | perc_inhibition_mean (SARS-CoV-2 nsp3-mac1 [1]; concentration 99.5 uM): 1.645% | inhibition at 49.75 µM (SARS-CoV-2 nsp3-mac1 [2]; [12]): 0.844% | inhibition at 99.5 µM (SARS-CoV-2 nsp3-mac1 [2]; [12]): 1.65%

C[C@@H]1[C@H](O)CCCN1C(=O)c1ccc(NC(=O)Nc2ccccc2)cc1 [ASAP-0000302]
perc_inhibition_mean (SARS-CoV-2 nsp3-mac1 [1]; concentration 49.75 uM, n=2): -2.963% | perc_inhibition_mean (SARS-CoV-2 nsp3-mac1 [1]; concentration 99.5 uM, n=2): -2.724% | inhibition at 49.75 µM (SARS-CoV-2 nsp3-mac1 [2]; [13]): -2.96% | inhibition at 99.5 µM (SARS-CoV-2 nsp3-mac1 [2]; [13]): -2.72%

O=C(CCN(Cc1cccc(Cl)c1)C(=O)C1(F)CCCCC1)N1CCNCC1 [ASAP-0000298]
perc_inhibition_mean (SARS-CoV-2 nsp3-mac1 [1]; concentration 49.75 uM, n=2): -3.576% | perc_inhibition_mean (SARS-CoV-2 nsp3-mac1 [1]; concentration 99.5 uM, n=2): 0.185% | inhibition at 49.75 µM (SARS-CoV-2 nsp3-mac1 [2]; [14]): -3.58% | inhibition at 99.5 µM (SARS-CoV-2 nsp3-mac1 [2]; [14]): 0.185%

O=C(N[C@H]1CCC[C@H]1C(=O)O)c1cnn2ccc(C3CCN(C(=O)c4ccccc4)CC3)cc12 [ASAP-0000350]
perc_inhibition_mean (SARS-CoV-2 nsp3-mac1 [1]; concentration 49.75 uM, n=2): 59.585% | perc_inhibition_mean (SARS-CoV-2 nsp3-mac1 [1]; concentration 99.5 uM, n=2): 73.53% | inhibition at 49.75 µM (SARS-CoV-2 nsp3-mac1 [2]; [15]): 59.6% | inhibition at 99.5 µM (SARS-CoV-2 nsp3-mac1 [2]; [15]): 73.5%

O=C(Nc1cnc2[nH]ncc2c1)C1(c2ccccc2)CC1 [ASAP-0000133]
perc_inhibition_mean (SARS-CoV-2 nsp3-mac1 [1]; concentration 50.0 uM): 3.207% | inhibition at 50 µM (SARS-CoV-2 nsp3-mac1 [2]; read-out: perc_inhibition_mean, batch_name=ASAP-0000133-001): 3.21%

c1ccc(-c2n[nH]cc2CNc2cnc3[nH]ncc3c2)cc1 [ASAP-0000059]
perc_inhibition_mean (SARS-CoV-2 nsp3-mac1 [1]; concentration 50.0 uM): -2.044% | inhibition at 50 µM (SARS-CoV-2 nsp3-mac1 [2]; read-out: perc_inhibition_mean, batch_name=ASAP-0000059-001): -2.04%

CNC(=O)c1cccc(CNC(=O)c2ncnc3[nH]ccc23)c1 [ASAP-0000019]
perc_inhibition_mean (SARS-CoV-2 nsp3-mac1 [1]; concentration 50.0 uM): -5.906% | inhibition at 50 µM (SARS-CoV-2 nsp3-mac1 [2]; read-out: perc_inhibition_mean, batch_name=ASAP-0000019-001): -5.91%
